Data published in article PMC4964386, “Synthesis, Characterization, and Cytotoxicity of the First Oxaliplatin Pt(IV) Derivative Having a TSPO Ligand in the Axial Position” (International Journal of Molecular Sciences, 2016).
Where two headings read alike, the source gives them in different places.

How the values were obtained:
TSPO = molecular target: T1, TSPO (Rattus norvegicus, UniProt P16257); assay: TSPO receptor binding assay, displacement of [3H]-PK 11195
T1 construct: Membranes from C6 rat glioma cells were prepared as described by Piccinonna et al; endogenous in cells; host or cells: C6 rat glioma cell membranes
T1 sequence (P16257 whole entry): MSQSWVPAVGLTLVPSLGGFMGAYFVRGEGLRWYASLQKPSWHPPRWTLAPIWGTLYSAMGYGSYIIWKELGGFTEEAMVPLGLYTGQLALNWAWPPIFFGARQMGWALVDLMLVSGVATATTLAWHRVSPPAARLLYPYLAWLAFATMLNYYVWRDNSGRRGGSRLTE
Method: Membranes from C6 rat glioma cells were prepared as described by Piccinonna et al. with minor modifications. In brief, cells scraped in PBS and harvested, were then homogenized with a Brinkman Polytron (Kinematica AG, Münstertäler, Germany). After centrifugation at 37,000× g for 30 min at 4 °C the resulting pellet was resuspended in ice-cold 10 mM PBS and stored at −80 °C until use.

[1] = system: human MCF7 breast carcinoma; assay: MTT cell proliferation assay, MCF7; assay type: cell-based; conditions: MCF7, 72 h treatment; for IC50: MTT, read-out: IC50 (concentration inducing 50% cell survival inhibition)
Method: (§1) The cytotoxicity of the compounds, expressed as IC50 values after 72 h incubation (except in two cases where it is expressed as the % of cell viability at the maximum concentration tested of 100 μM) are reported in Table 3.
(§2) Human MCF7 breast carcinoma, human U87 glioblastoma, human LoVo colon adenocarcinoma cell lines and C6 rat glioma cells were used. As recommended for these cell lines, the base medium used (EuroClone, Pero (MI), Italy) was RPMI for MCF7 cells, DMEM for U87 and C6 cells, and F-12/HAM for LoVo cells, enriched with fetal bovine serum (10%), penicillin (100 U/mL)/streptomycin (100 μg/mL) (1%) and glutamine 200 mM (1%) (EuroClone, Pero (MI), Italy). Cells were incubated at 37 °C under an atmosphere containing 5% CO2.
(§3) Determination of cell growth inhibition was performed on MCF7, U87 and LoVo cell lines, using the 3-[4,5-dimethylthiazol-2-yl]-2,5-diphenyltetrazoliumbromide (MTT) assay. The determination of the % of cell viability after treatment with the test compounds, was performed as described by Denora et al.. Briefly, cells were dispensed on 96 microtiter plates at a density of 5000 cells/well and, after overnight incubation, were exposed for 72 h to solutions of the compounds with concentration in the range 0.01–100 µM. After addition of MTT (10 μL of 0.5% w/v in PBS) and incubation for an additional 3 h at 37 °C, the cells were lysed with 100 μL of DMSO/EtOH 1:1 (v/v) solution, dispensed in each well. A PerkinElmer 2030 multilabel reader Victor TM X3 (manufactured for WALLAC Oy, Turku, Finland by PerkinElmer Singapore was used for the absorbance determination at 570 nm.

human U87 glioblastoma = assay: MTT cell proliferation assay, U87; assay type: cell-based; conditions: U87, 72 h treatment, read-out: IC50 (concentration inducing 50% cell survival inhibition)
Method: as §1, §2, §3

[2] = system: human LoVo colon adenocarcinoma; assay: MTT cell proliferation assay, LoVo; assay type: cell-based; conditions: 72 h treatment; for IC50: MTT, read-out: IC50 (concentration inducing 50% cell survival inhibition)
Method: as §1, §2, §3

LoVo colon cancer cells = assay: Platinum cellular uptake by ICP-MS; assay type: cell-based, human
Excerpt: As already reported, oxaliplatin is a chemotherapeutic drug mainly used for the treatment of colorectal cancer, therefore, we extended our investigation only to LoVo cells. First we measured the intracellular accumulation of platinum by ICP-MS. […] Most likely, organic cation transporters (OCT) may facilitate the uptake of oxaliplatin [47] at short time exposure and then, after saturation, the passive diffusion of the most lipophilic compounds becomes prominent.
A Varian 820-MS ICP mass spectrometer (Varian Italia, Cernusco sul Naviglio (MI), Italy) was used to perform the inductively coupled plasma mass spectrometry (ICP-MS) analyses for the determination of the platinum cellular uptake in LoVo colon cancer cells. Cells were seeded in 60 mm tissue culture dishes at a density of 500,000 cells/dish and incubated at 37 °C in a humidified atmosphere with 5% CO2. […] The platinum content was determined by ICP-MS.

LoVo cells = assay: Cell cycle analysis by flow cytometry (propidium iodide); assay type: cell-based, human; conditions: for Perturbation of cell cycle progression: 24 h treatment at IC50 concentrations (compound 2 at 100 µM), FCM
Method: Figure 9 Flow cytometric analysis of LoVo cells stained with propidium iodide after 24 h of treatment with test compounds.
Then, the experimental procedure described in our previous work was performed.

[3] = Stability in physiological-like solution by 1H-NMR and HPLC; assay type: physicochemical
Method: The stability of 3 was investigated by ^1H-NMR spectroscopy in DMSO-d6/D2O (5:95, v/v) at pH 7.4 (2 mM phosphate buffer) and 37 °C. […] After 8 h of incubation we observed a decrease in intensity of the peaks of 3 and the concomitant increase of a new set of peaks, marked with ● in Figure 8b (H5, 8.09 ppm; H7, 7.44 ppm; H16/20 7.35 ppm), that was assigned to compound 2 by comparison with a spectrum of the TSPO ligand recorded in similar conditions.
An HPLC analysis of the sample was performed after 108 h incubation at 37 °C. […] No reduction of the Pt(IV) complex occurred under the conditions used in this experiment.
The sample was incubated at 37 °C in the dark and ^1H-NMR spectra recorded at different time intervals.
The NMR solution was further analyzed by HPLC analysis. Stationary phase: Waters Symmetry RP-C18 column, 5 μm, 4.6 × 250 mm, 100 Å. Mobile phase: phase A = water and phase B = Acetonitrile; isocratic elution 5% phase B for 5 min, linear gradient from 5% to 50% phase B in 10 min, isocratic elution 50% phase B for 7 min, linear gradient from 50% to 5% phase B in 2 min, isocratic elution 5% phase B for 6 min. Flow rate = 0.7 mL·min^−1. UV-visible detector set at 220 nm.

[4] = after 4 h treatment at IC50 concentration
[5] = after 24 h treatment at IC50 concentration
[6] = Homo sapiens, 100 µM (maximum concentration tested)

| Structure (SMILES) | IC50 (TSPO; displacement of [3H]-PK 11195 (0.7 nM), Table 2: rat cerebral cortex, method: C6 rat glioma cell membranes, 90 min, 25 °C, read-out: IC50 TSPO) | IC50 [1] | IC50 (human U87 glioblastoma) | IC50 ([2]; listed as cis,trans,cis-[Pt(ethanedioato)Cl{2-(2-(4-(6,8-dichloro-3-(2-(dipropylamino)-2-o))))) | IC50 [2] | Uptake by LoVo Cells (ppb of Pt) (LoVo colon cancer cells; [4]) | Uptake by LoVo Cells (ppb of Pt) (LoVo colon cancer cells; [5]) | Induction of apoptosis (LoVo cells; 24 h treatment) | Perturbation of cell cycle progression (LoVo cells) | Half-life of the complex (hydrolysis of ester bond) ([3]; DMSO-d6/D2O (5:95, v/v), pH 7.4 (2 mM phosphate buffer), 37 °C, 52 μM, from NMR) | Time after which signals disappeared completely ([3]; DMSO-d6/D2O (5:95, v/v), pH 7.4 (2 mM phosphate buffer), 37 °C, 1H-NMR) | Degradation behaviour in physiological-like conditions ([3]; pH 7.4, 37 °C, HPLC after 108 h incubation) | IC50 (TSPO) | viability at 100 µM [1, 6] | IC50 (human U87 glioblastoma; Homo sapiens) | viability at 100 µM [2, 6] |
| --- | --- | --- | --- | --- | --- | --- | --- | --- | --- | --- | --- | --- | --- | --- | --- | --- |
| CCCN(CCC)C(=O)Cc1c(-c2ccc(OCC(=O)OCC[O][Pt]3([Cl])[O]C(=O)C(=O)[O]3)cc2)nc2c(Cl)cc(Cl)cn12.N[C@@H]1CCCC[C@H]1N [compound 3, cis,trans,cis-[Pt(ethanedioato)Cl{2-(2-(4-(6,8-dichloro-3-(2-(dipropylamino)-2-oxoethyl)imidazo[1,2-a]pyridin-2-yl)phenoxy)acetate)-ethanolato}(1R,2R-DACH)]] | 18.6 ± 0.84 nM | 14100 ± 100 nM | 16100 ± 300 nM | 2310 nM | 2300 ± 100 nM | 0.33 ± 0.02 ppb of Pt | 0.77 ± 0.02 ppb of Pt | did not induce apoptosis | no notable changes compared to oxaliplatin | approximately 24 h | 108 h | slow hydrolysis of the ester bond | – | – | – | – |
| O=C1[O][Pt-2]2([NH2+]C3CCCC[C@H]3[NH2+]2)[O]C1=O (stereo in doubt) [Oxaliplatin, trans-1R,2R-diaminocyclohexane(oxalato)platinum(II)] | – | – | 3100 ± 200 nM | – | 460 ± 10 nM | 0.24 ± 0.04 ppb of Pt | 0.38 ± 0.01 ppb of Pt | – | delayed the S-phase and started to accumulate cells in G2/M-phase and G0/G1 phase | – | – | – | – | – | – | – |
| CCCN(CCC)C(=O)Cc1c(-c2ccc(OCC(=O)O)cc2)nc2c(Cl)cc(Cl)cn12 [compound 2, 2-(4-(6,8-dichloro-3-(2-(dipropylamino)-2-oxoethyl)imidazo[1,2-a]pyridin-2-yl)phenoxy)acetic acid] | – | – | – | – | – | – | – | – | induced a sub-G0/G1 cell population | – | – | – | 2.12 ± 0.1 nM | 53% | 70200 ± 300 nM | 65% |
| O=C1[O][Pt]2([Cl])([O]CCO)([NH]C3CCCCC3[NH]2)[O]C1=O (mixture of isomers) [compound 1, Cis,trans,cis-[Pt(ethanedioato)Cl(2-hydroxyethanolato)(1R,2R-DACH)]] | – | 8200 ± 400 nM | 9100 ± 400 nM | – | 2500 ± 500 nM | 0.18 ± 0.01 ppb of Pt | 0.59 ± 0.03 ppb of Pt | – | no notable changes compared to oxaliplatin | – | – | – | – | – | – | – |
